Laboratory results: patent US20080214606A1, “Methods for the Identification and Use of Compounds Suitable for the Treatment of Drug Resistant Cancer Cells” (The Government of the United States of America as …, priority 2004, published 2008)
Entries after “also recorded” stand apart in the source; their conditions may differ. Read-outs that look alike come from different tables or passages of the source.

Key:
ABCC5 = molecular target: T1, ABCC5 (Homo sapiens, UniProt O15440); experiment: Correlation of ABCC5 expression with drug sensitivity across the NCI-60; type: cell-based; conditions: Pearson correlation of ABCC5 expression with sensitivity of the 60 cell lines; 1429 compounds; inverse, p < 0.0001
T1 construct: profiled in 60 diverse cancer cell lines (the NCI-60) using real-time RT-PCR; endogenous in cells; host or cells: NCI-60 human cancer cell lines
Description: (§1) Expression levels are measured by real-time quantitative RT-PCR using the LightCycler RNA Amplification SYBR Green kit and a LightCycler machine (Roche Biochemicals, Indianapolis, Ind.). […] When possible, the amplicons are designed to encompass exon-intron boundaries to avoid amplification of genomic DNA. Since the Syber Green assay detects accumulation of double stranded DNA, primers are selected (from a battery consisting of about 200 primers) that amplified a single product of the correct size.
(§2) RT-PCR is carried out on 150 ng total RNA, in the presence of 250 nM specific primers. Following reverse transcription (20 min at 50° C.), the PCR reaction consists of 45 cycles of denaturation (15 sec at 95° C.), annealing (30 sec at 58° C.), and elongation (30 sec at 72° C.). No-template (water) reaction mixtures are prepared as negative controls.
(§3) During PCR amplification, fluorescence emission is measured and recorded in real time by the LightCycler. Crossing point values are calculated, using the LightCycler software package, by the Fit Points analysis method, with baseline fluorescence set at 1. The SyberGreen assay measures accumulation of double-stranded products, and the appearance of primer dimers limits quantitation at high cycle numbers. The specificity of amplified products is verified by melting-curve analysis and agarose gel electrophoresis (not shown). The raw results are expressed as number of cycles to reach the crossing point. If the desired product is not detected, the corresponding value is adjusted to crossing points indicating no expression. To assess the contribution of experimental artifacts, selected cell lines are assessed in replicate.
(§4) The two are combined to form a joint dataset that includes 1429 compounds.
(§5) In the Benjamini-Hochberg procedure the p-values are computed in the standard way by permutation, assuming that all distributions are exchangeable: the number of values in the permuted data with correlations over a threshold, divided by the number of compounds and by the number of permutations. In this analysis, the False Discovery Rate (q-value) at which each compound would be declared was calculated using the step-up procedure for positively correlated test statistics (again true because all correlations being compared are computed against the same ABC gene): in this procedure the first q-value for the largest correlation is the Bonferroni-corrected p-value for that gene; then further q-values are calculated as qj=max(pj*1429/j, qj-1). This procedure limits the expected proportion of false positives in the list 1, . . . , j to at most qj.

ABCB6 = molecular target: T2, ABCB6 (Homo sapiens, UniProt Q9NP58); experiment: Correlation of ABCB6 expression with drug sensitivity across the NCI-60; type: cell-based; conditions: Pearson correlation of ABCB6 expression with sensitivity of the 60 cell lines; 1429 compounds; inverse, p < 0.0001
T2 construct: profiled in 60 diverse cancer cell lines (the NCI-60) using real-time RT-PCR; endogenous in cells; host or cells: NCI-60 human cancer cell lines
Description: (§6) Expression levels are measured by real-time quantitative RT-PCR using the LightCycler RNA Amplification SYBR Green kit and a LightCycler machine (Roche Biochemicals, Indianapolis, Ind.). Specific oligonucleotide probes are designed for each of the ABC transporters using DNAStar Primer Select (DNASTAR Inc.), and they may be synthesized at Lofstrand Laboratories (Gaithersburg, Md.). When possible, the amplicons are designed to encompass exon-intron boundaries to avoid amplification of genomic DNA. Since the Syber Green assay detects accumulation of double stranded DNA, primers are selected (from a battery consisting of about 200 primers) that amplified a single product of the correct size. […]
(§7) During PCR amplification, fluorescence emission is measured and recorded in real time by the LightCycler. Crossing point values are calculated, using the LightCycler software package, by the Fit Points analysis method, with baseline fluorescence set at 1. The SyberGreen assay measures accumulation of double-stranded products, and the appearance of primer dimers limits quantitation at high cycle numbers. […] The raw results are expressed as number of cycles to reach the crossing point. If the desired product is not detected, the corresponding value is adjusted to crossing points indicating no expression. To assess the contribution of experimental artifacts, selected cell lines are assessed in replicate. […]

ABCA9 = molecular target: T3, ABCA9 (Homo sapiens, UniProt Q8IUA7); experiment: Correlation of ABCA9 expression with drug sensitivity across the NCI-60; type: cell-based; conditions: Pearson correlation of ABCA9 expression with sensitivity of the 60 cell lines; 1429 compounds; inverse, p < 0.0001
T3 construct: profiled in 60 diverse cancer cell lines (the NCI-60) using real-time RT-PCR; endogenous in cells; host or cells: NCI-60 human cancer cell lines
Description: as §6, §7

[1] = test system: MDR1-overexpressing KB-V1 cells; experiment: Efflux assay (accumulation of fluorescent NSC 634791, flow cytometry); type: cell-based, human
Description: The dashed lines indicate the same experiment performed in the presence of 2 μM of the ABCB1 inhibitor, PSC 833 (for KB-3-1, the solid and dashed lines overlap). Values are means ±SE. for representative experiments performed in triplicate. […] The effect of PSC 833 on IC50 values in KB-V1 cells is expressed as a dose modifying factor, DMF=[IC50/IC50+(IC50)PSC833)], where (IC50)PSC833 is the value obtained in the presence of the inhibitor. […] Cells are incubated with 1.74 μM NSC 634791 for 10 min at 37° C. in the presence (peak on the right) or absence (peak on the left) of 2 μM PSC 833.
Trypsinized cells are washed twice in phosphate-buffered saline (PBS). 5×10^5 cells are pre-incubated for 5 min at 37° C. in Iscove's Modified Dulbecco's Medium (Quality Biologicals, Gaithersburg, Md.) with 0.5% dimethyl sulphoxide (DMSO), with or without 2 μM PSC 833. […] Green fluorescence intensity is measured using a FacsCalibur flow cytometer equipped with a 488-nm argon laser (Becton Dickinson Biosciences, San Jose, Calif., USA). […]
To test whether our approach using the NCI-60 does, in fact, identify new substrates, an MTT assay is used to test all top-scoring compounds that were available from DTP for follow-up experiments. […] The intrinsic fluorescence of one of the compounds, NSC 634791, allows for the measurement of the effect of MDR1 activity on its export from cells.

ABCB1 = ABCB1 (Homo sapiens, UniProt P08183); experiment: Correlation of ABCB1 expression with drug sensitivity across the NCI-60
Summary of the method: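 SYBR Green real-time RT-PCR on 150 ng total RNA with 250 nM primers: RT 20 min at 50 °C, then 45 cycles; expression taken as crossing-point cycle number. Correlated with drug sensitivity of 1429 compounds across the cell panel; permutation p-values with step-down and step-up (FDR q-value) multiple-testing correction.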

ABCG2 = molecular target: T4, ABCG2 (Homo sapiens, UniProt Q9UNQ0); experiment: Correlation of ABCG2 expression with drug sensitivity across the NCI-60; type: cell-based; conditions: Pearson correlation of ABCG2 expression with sensitivity of the 60 cell lines; 1429 compounds; inverse, p < 0.0001
T4 construct: endogenous in cells; host or cells: NCI-60 human cancer cell lines
Description: as §6, §7

MDR1 = MDR1 (Homo sapiens, UniProt P08183); conditions: cited from earlier work; for Interaction with MDR1: tested in various laboratories
[2] = test system: ABCC2-transfected MDCKII cells; experiment: MTT assay, ABCC2-transfected vs sham-transfected MDCKII cells; type: cell-based, dog
Description: Panel A is a scatter plot showing the correlation (r) of ABCC2 expression with sensitivity of the 60 cells to NSC 641281 (r=−0.46; 99.99% two-tailed bootstrap confidence interval −0.7987 to −0.0440).
Cell survival is measured by the MTT (3-(4,5-Dimethylthiazol-2-yl)-2,5-diphenyltetrazolium) Assay. Cells are seeded in 100 μl medium at a density of 5000 cells/well in 96 well plates, and serially diluted drug (with or without 2 μM PSC 833) is added the following day in 100 μl medium to give the indicated final concentration. Cells are then incubated for 72 hrs at 37° C. in 5% CO2, and the MTT assay is performed according to the manufacturer's instructions (Molecular Probes, Eugene, Oreg.).
The ABCC (MRP) subfamily is comprised of nine members that transport structurally diverse lipophilic anions and function as drug efflux pumps (Kruh and Belinsky, 2003, Oncogene 22:7537-52). ABCC2-MRP2 is a canalicular efflux pump with a role in the hepatobiliary excretion of bilirubin glucuronide as well as numerous pharmaceuticals. […] One of these compounds, NSC 641281 (shown in FIG. 4, Panel C), was available from DTP for further testing. […]

ABCA1 = molecular target: T5, ABCA1 (Homo sapiens, UniProt O95477); experiment: Correlation of ABCA1 expression with drug sensitivity across the NCI-60; type: cell-based; conditions: Pearson correlation of ABCA1 expression with sensitivity of the 60 cell lines; 1429 compounds; inverse, p < 0.0001
T5 construct: profiled in 60 diverse cancer cell lines (the NCI-60) using real-time RT-PCR; endogenous in cells; host or cells: NCI-60 human cancer cell lines
Description: as §1, §2, §3, §4, §5

Chain of MDR1 (P08183 whole entry): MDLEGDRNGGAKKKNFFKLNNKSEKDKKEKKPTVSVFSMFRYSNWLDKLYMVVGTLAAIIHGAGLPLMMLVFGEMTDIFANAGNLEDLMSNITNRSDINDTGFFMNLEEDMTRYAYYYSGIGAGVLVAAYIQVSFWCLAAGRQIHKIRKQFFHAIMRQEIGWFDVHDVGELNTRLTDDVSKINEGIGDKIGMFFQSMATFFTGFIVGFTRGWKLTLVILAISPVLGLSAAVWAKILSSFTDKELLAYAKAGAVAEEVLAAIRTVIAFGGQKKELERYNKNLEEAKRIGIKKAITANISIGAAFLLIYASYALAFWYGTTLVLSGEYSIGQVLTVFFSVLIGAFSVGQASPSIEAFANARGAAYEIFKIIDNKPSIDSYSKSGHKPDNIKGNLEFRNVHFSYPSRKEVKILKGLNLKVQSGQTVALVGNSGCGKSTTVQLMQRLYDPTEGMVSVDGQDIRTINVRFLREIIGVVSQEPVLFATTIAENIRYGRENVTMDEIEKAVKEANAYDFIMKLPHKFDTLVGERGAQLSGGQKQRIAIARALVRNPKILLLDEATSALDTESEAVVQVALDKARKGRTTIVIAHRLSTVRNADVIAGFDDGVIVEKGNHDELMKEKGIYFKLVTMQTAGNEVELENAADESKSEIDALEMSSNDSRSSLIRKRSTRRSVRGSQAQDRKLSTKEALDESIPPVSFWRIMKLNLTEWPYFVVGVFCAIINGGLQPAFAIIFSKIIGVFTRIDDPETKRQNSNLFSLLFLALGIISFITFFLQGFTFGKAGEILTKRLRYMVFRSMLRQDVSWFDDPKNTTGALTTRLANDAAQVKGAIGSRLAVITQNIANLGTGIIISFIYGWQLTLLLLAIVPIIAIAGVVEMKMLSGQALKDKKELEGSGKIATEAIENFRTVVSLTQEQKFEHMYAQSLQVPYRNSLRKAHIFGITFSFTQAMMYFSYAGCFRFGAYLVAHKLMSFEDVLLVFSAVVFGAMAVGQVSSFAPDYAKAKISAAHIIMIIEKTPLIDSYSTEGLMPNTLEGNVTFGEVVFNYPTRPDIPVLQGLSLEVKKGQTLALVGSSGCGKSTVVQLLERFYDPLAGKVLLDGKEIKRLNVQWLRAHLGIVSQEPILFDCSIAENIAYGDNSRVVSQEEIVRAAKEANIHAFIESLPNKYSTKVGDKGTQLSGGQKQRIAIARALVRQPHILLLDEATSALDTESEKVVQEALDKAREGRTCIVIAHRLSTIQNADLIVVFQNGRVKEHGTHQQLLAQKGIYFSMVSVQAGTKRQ
Chain of ABCB1 (P08183 whole entry): as above
T1 sequence (O15440 whole entry): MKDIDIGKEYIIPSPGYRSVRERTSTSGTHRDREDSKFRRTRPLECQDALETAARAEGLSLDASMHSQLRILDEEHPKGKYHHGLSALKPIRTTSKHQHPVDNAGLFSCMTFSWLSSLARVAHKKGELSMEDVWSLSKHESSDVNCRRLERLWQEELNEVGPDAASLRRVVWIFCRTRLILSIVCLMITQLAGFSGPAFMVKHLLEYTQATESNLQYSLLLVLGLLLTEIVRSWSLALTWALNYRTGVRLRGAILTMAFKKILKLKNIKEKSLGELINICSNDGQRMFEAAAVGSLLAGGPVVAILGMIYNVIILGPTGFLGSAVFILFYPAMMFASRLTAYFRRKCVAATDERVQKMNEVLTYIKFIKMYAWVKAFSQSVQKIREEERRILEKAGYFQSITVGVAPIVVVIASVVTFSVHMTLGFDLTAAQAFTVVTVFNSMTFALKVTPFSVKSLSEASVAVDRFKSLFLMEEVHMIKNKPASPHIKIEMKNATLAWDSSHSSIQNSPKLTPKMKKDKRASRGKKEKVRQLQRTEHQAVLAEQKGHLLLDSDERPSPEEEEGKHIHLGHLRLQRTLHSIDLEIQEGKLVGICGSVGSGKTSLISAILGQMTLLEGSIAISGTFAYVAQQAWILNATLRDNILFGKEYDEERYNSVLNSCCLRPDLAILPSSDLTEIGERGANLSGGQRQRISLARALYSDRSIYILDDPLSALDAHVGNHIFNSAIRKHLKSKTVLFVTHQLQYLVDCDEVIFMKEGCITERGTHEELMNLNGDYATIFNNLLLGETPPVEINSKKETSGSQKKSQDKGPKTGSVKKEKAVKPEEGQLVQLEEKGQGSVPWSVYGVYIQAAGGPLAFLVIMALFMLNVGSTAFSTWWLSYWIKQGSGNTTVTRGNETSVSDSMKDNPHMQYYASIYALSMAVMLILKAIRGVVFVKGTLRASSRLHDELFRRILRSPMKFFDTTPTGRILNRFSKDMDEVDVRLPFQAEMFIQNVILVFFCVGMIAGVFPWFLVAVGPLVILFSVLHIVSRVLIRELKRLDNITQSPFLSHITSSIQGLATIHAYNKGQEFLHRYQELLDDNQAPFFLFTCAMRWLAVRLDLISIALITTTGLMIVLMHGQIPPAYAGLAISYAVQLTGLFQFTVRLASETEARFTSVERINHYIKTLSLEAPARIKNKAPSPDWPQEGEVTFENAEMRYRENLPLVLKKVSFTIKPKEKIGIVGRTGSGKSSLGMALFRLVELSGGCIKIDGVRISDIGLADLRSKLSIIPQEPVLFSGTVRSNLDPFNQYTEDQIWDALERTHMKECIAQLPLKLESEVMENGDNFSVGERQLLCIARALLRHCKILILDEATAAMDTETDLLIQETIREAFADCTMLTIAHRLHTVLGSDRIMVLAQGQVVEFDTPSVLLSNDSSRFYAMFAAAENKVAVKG
T4 sequence (Q9UNQ0 whole entry): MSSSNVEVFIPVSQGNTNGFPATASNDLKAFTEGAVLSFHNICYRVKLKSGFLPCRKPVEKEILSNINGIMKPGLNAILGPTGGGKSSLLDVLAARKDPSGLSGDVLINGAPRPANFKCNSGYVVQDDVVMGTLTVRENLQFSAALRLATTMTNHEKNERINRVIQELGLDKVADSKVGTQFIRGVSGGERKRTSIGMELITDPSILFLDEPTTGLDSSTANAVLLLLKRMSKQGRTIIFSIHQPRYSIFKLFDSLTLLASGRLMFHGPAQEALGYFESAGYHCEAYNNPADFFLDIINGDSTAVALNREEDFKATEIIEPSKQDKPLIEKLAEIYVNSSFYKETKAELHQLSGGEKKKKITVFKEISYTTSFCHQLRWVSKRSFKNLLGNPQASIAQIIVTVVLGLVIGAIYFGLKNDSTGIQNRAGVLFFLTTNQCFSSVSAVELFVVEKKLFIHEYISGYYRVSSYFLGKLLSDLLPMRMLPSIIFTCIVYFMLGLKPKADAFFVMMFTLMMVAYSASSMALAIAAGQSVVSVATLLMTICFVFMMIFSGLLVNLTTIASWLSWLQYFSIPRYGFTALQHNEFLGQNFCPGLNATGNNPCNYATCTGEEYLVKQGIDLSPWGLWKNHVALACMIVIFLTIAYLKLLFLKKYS

CS(=O)(=O)[O-].Cc1c2cc[n+](C)cc2c(C)c2c1[nH]c1ccccc12 [NSC 352299]
Correlation (ABCC5): −0.4318

Cn1c2ccccc2c2ccc3c(c21)C(=O)C=CC3=O [NSC 92937]
Correlation (ABCB6): −0.4335

CCCCCCCCCCCCCCCC(=O)OCC1OC(OC)C2NP(=O)(N(CCCl)CCCl)OC1C2O (stereo not shown) [NSC 642915]
Correlation (ABCA9): −0.4289

C[C@]12CC[C@H]3[C@@H](CCC4=CC(=O)NCC[C@@]43C)[C@@H]1CC[C@@H]2OC(=O)COc1ccc(N(CCCl)CCCl)cc1 [NSC 620480]
Correlation (ABCA9): −0.4846

CCN(CC)c1ccc(/C=C2/C[N+](C)(C)C/C(=C/c3ccc(N(CC)CC)cc3)C2=O)cc1.[I-] [NSC 634791]
Accumulation of the fluorescent compound in MDR1-positive cells vs parental KB-3-1 ([1]; 1.74 μM, 10 min at 37° C.): contain less of the fluorescent compound than the parental KB-3-1 cell line
Effect of PSC 833 on the decreased accumulation ([1]; 2 μM PSC 833): completely reversible
Correlation (ABCB1): −0.7900

Cn1c2ccc(F)cc2c2ccc3c(c21)C(=O)C=CC3=O [NSC 668844]
Correlation (ABCG2): −0.4615

COc1cc2cc3c4cc(OC)c(OC)cc4cc[n+]3c(C)c2cc1OC [NSC 156625, Coralyne]
Correlation (ABCB1): −0.4657
Interaction with MDR1 (MDR1): interact with MDR1

COc1ccc2c(c1)c1c(C)c3c[n+](C)ccc3c(C)c1n2C [NSC 155694]
Correlation (ABCC5): −0.4494

CCOC(=O)/C=C(\C(=O)OCC)n1cc(C)c(=O)n(Cc2cnnn2CCCCOC(C)=O)c1=O [NSC 694002]
Correlation (ABCG2): −0.3627
Pearson's Correlation Coeff (ABCB1): 0.2442

O=C(O)COc1ccc(C(=O)/C(SS/C(C(=O)c2ccc(OCC(=O)O)c(Cl)c2Cl)=C2\C=C(c3ccc(Br)cc3)SS2)=C2/C=C(c3ccc(Br)cc3)SS2)c(Cl)c1Cl [NSC 641281]
Response of ABCC2-overexpressing MDCKII cells vs sham-transfected control [2]: extremely resistant; also recorded: no signs of toxicity even at maximal concentrations

COc1cc2c(cc1Oc1c(Oc3c(O)c(OC)cc4c3C(CC(C)C)N(C)CC4)c(OC)cc3c1C(CC(C)C)N(C)CC3)C(CC(C)C)N(C)CC2 (stereo not shown) [NSC 21075]
Correlation (ABCC5): −0.3650

CCS(=O)(=O)O.CN(C)C(=O)c1cccc(COc2ccc(N3C(N)=NC(N)=NC3(C)C)cc2Cl)c1 [NSC 139105, Baker's soluble antifol, reference compound]
Relationship between drug sensitivity and ABCB1 expression (in words) (ABCB1): inversely correlated
Reversal of resistance by verapamil (MDR1; verapamil, inhibitor of MDR1 transport (Gupta et al., 1988)): reversed by verapamil

CC(=O)O[C@@H]1[C@@H](O)[C@H](O[C@H]2[C@H](OC(=O)[C@H]3CC[C@@H]4[C@H](C3)O[C@@]3(C[C@H](OC(=O)/C=C/c5ccccc5)[C@H](C)CO3)[C@]43CO3)O[C@H](C)[C@@H](O)[C@@H]2OC(C)=O)O[C@H](C)[C@H]1O [NSC 328426, phyllanthoside]
Correlation (ABCB1; Pearson correlation of ABCB1 expression with sensitivity of the 60 cell lines, 1429 compounds, inverse, p < 0.0001): −0.7784
Interaction with MDR1 (MDR1): interact with MDR1
Correlation (ABCA1): −0.2806

Cc1c2cc[n+](Cc3ccc(I)cc3)cc2c(C)c2c1[nH]c1ccccc12 [NSC 604574]
Correlation (ABCC5): −0.4123

CC(=O)O[C@@H]1C=C(C=O)[C@](O)(C=O)[C@@]2(C)CCCC(C)(C)[C@H]12 [NSC 277293]
Correlation (ABCB6): −0.5055
